Reference: US5891882A, “Benzopyranopyrrole and benzopyranopyridine α-1 adenergic compounds” (priority 1997, dated 1999)
Where a name gives a salt, the structure may show the parent alone.

Target: T1, α-1 Adrenoceptors (Rat Aorta) (Rattus norvegicus, UniProt P23944)
T1 construct: Rat Aorta; from tissue; host or cells: rat aorta
T1 sequence (P23944 1-561): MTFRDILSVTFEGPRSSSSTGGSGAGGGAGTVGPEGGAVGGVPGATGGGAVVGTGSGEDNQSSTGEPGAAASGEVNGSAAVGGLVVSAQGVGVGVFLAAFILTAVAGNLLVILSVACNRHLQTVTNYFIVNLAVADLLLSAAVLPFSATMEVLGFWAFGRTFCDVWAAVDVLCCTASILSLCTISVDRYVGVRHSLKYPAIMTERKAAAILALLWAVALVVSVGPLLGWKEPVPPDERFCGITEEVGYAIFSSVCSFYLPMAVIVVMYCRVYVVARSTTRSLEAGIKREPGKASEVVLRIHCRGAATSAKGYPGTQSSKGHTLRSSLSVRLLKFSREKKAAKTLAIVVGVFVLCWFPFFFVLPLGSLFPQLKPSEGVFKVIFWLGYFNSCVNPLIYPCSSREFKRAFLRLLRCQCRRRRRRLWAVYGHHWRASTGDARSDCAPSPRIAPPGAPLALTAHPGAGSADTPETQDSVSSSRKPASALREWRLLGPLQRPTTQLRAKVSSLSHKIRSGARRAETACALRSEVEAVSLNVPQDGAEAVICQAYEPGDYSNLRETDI
Assay: Functional antagonism at α-1 adrenoceptors, rat aorta
Assay type: cell-based
Method in brief: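 Phenylephrine dose-response curves for contraction were repeated against increasing test-agent concentrations. pA2 was derived by Schild plot [[…] vs log molarity of test agent].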

- In Vitro Characterization (pA2) Rat Aorta: 9.15
SMILES: COc1ccc2c(n1)sc1c(=O)n(CCCCN3C[C@@H]4COc5cccc(OC)c5[C@@H]4C3)c(=O)[nH]c12 [Example 33, hydrochloride]
